Results: patent US20210040089A1, “KRAS MUTANT PROTEIN INHIBITORS” (Jacobio Pharmaceuticals Co., Ltd., priority 2019, published 2021)

Key:
[1] = system: Phospho-ERK1/2(THR202/TYR204) in NCI-H358 cells express KRAS G12C; test: Phospho-ERK1/2(THR202/TYR204) HTRF assay; assay type: cell-based; settings: Homo sapiens; NCI-H358, 2 hours incubation; read-out: p-ERK inhibition in NCI-H358 IC50
In short: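 Compounds applied to attached cells for 2 h at 37 °C in RPMI 1640 with 0.1% FBS. Lysate phospho-ERK1/2 detected by HTRF after 4 h antibody incubation at 25 °C; IC50 from 4-parameter logistic fit.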

[2] = system: NCI-H358 cells express KRAS G12C; test: Cell growth inhibition assay (CCK-8); assay type: cell-based; settings: Homo sapiens, 144 h; NCI-H358, 6 days incubation
In short: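 Antiproliferative read-out: KRAS G12C-mutant NCI-H358 lung cancer cells (3000/well) exposed to compounds in RPMI 1640 with 10% FBS for 6 days at 37°C. Viability by CCK-8 (OD450) after 1.5-2 h; IC50 from 4-parameter logistic fit.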

KRAS G12C = molecular target: T1, KRAS G12C (Homo sapiens, UniProt P01116, G12C); test: SOS1 catalyzed nucleotide exchange assay (TR-FRET); assay type: biochemical; settings: GDP-loaded HIS-KRAS(G12C), 1 hour pre-incubation with compound
T1 construct: HIS-KRAS (G12C, aa 2-185, Sino biological); purchased Sino biological
In short: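 EDTA-stripped, GDP-loaded His-KRAS G12C (aa 2-185; 3 nM final) preincubated 1 h with compound, then SOS1 ExD (aa 564-1049; 2 μM) and BODIPY-FL GTP (80 nM) added for 4 h at 25 °C. TR-FRET via anti-His Tb cryptate (515/486 nm ratio); IC50 from 4-parameter logistic fit.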

T1 sequence (P01116 2-185 isoform P01116-2 G12C): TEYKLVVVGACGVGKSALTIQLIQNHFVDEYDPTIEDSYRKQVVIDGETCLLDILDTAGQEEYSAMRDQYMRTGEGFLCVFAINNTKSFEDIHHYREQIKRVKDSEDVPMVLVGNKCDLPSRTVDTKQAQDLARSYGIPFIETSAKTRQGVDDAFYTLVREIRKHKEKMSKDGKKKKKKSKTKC

Compound	IC50 [1] [nM]	IC50 [2] [nM]	IC50 (KRAS G12C) [nM]
C=CC(=O)N1CCN(c2nc(OCC3(CN(C)C)CC3)nc3c2CCN(c2cccc4ccccc24)C3)CC1CC#N (stereo not drawn) [Compound 37, 2-(1-acryloyl-4-(2-((1-((dimethylamino)methyl)cyclopropyl)methoxy)-7-(naphthalen-1-yl)-5,6,7,8-tetrahydropyrido[3,4-d]pyrimidin-4-yl)piperazin-2-yl)acetonitrile]	81.6	85.5	6.75
C=C(F)C(=O)N1CCN(c2nc(OCC3(CN(C)C)CC3)nc3c2CCN(c2cccc4cccc(C)c24)C3)CC1CC#N (stereo not drawn) [Compound 78, 2-(4-(2-((1-((dimethylamino)methyl)cyclopropyl)methoxy)-7-(8-methylnaphthalen-1-yl)-5,6,7,8-tetrahydropyrido[3,4-d]pyrimidin-4-yl)-1-(2-fluoroacryloyl)piperazin-2-yl)acetonitrile]	208	208	8.36
C=CC(=O)N1CCN(c2nc(OCC3(CN(C)C)CC3)nc3c2CCN(c2cccc4ncsc24)C3)CC1CC#N (stereo not drawn) [Compound 54, 2-(1-acryloyl-4-(7-(benzo[d]thiazol-7-yl)-2-((1-((dimethylamino)methyl)cyclopropyl)methoxy)-5,6,7,8-tetrahydropyrido[3,4-d]pyrimidin-4-yl)piperazin-2-yl)acetonitrile]	> 500	> 1000	82.8
C=CC(=O)N1CCN(c2nc(OCC3CCCC3N(C)C)nc3c2CCN(c2cccc(F)c2C(F)(F)F)C3)CC1CC#N (stereo not drawn) [Compound 26, 2-(1-acryloyl-4-(2-((2-(dimethylamino)cyclopentyl)methoxy)-7-(3-fluoro-2-(trifluoromethyl)phenyl)-5,6,7,8-tetrahydropyrido[3,4-d]pyrimidin-4-yl)piperazin-2-yl)acetonitrile]	231	154	33.7
C=CC(=O)N1CCN(c2nc(OCC3(CN4CC[C@@H](F)C4)CC3)nc3c2CCN(c2cccc4cccc(C)c24)C3)CC1CC#N (stereo partly drawn) [Compound 49, 2-(1-acryloyl-4-(2-((1-(((R)-3-fluoropyrrolidin-1-yl)methyl)cyclopropyl)methoxy)-7-(8-methylnaphthalen-1-yl)-5,6,7,8-tetrahydropyrido[3,4-d]pyrimidin-4-yl)piperazin-2-yl)acetonitrile]	38.4	64.2	3.12
C=CC(=O)N1CCN(c2nc(OCC3CCC(N(C)C)C3)nc3c2CCN(c2cccc4ccccc24)C3)CC1CC#N (stereo not drawn) [Compound 17, 2-(1-acryloyl-4-(2-((3-(dimethylamino)cyclopentyl)methoxy)-7-(naphthalen-1-yl)-5,6,7,8-tetrahydropyrido[3,4-d]pyrimidin-4-yl)piperazin-2-yl)acetonitrile]	312	299	83.6
C=CC(=O)N1CCN(c2nc(OCC3(CN4CC[C@H](N(C)C)C4)CC3)nc3c2CCN(c2cccc4cccc(C)c24)C3)CC1CC#N (stereo partly drawn) [Compound 65, 2-(1-acryloyl-4-(2-((1-(((S)-3-(dimethylamino)pyrrolidin-1-yl)methyl)cyclopropyl)methoxy)-7-(8-methylnaphthalen-1-yl)-5,6,7,8-tetrahydropyrido[3,4-d]pyrimidin-4-yl)piperazin-2-yl)acetonitrile]	87.8	32.8	1.46
C=CC(=O)N1CCN(c2nc(OCC3CCCC3N(C)C)nc3c2CCN(c2cccc(Cl)c2Cl)C3)CC1CC#N (stereo not drawn) [Compound 25, 2-(1-acryloyl-4-(7-(2,3-dichlorophenyl)-2-((2-(dimethylamino)cyclopentyl)methoxy)-5,6,7,8-tetrahydropyrido[3,4-d]pyrimidin-4-yl)piperazin-2-yl)acetonitrile]	267	164	30.2
C=C(F)C(=O)N1CCN(c2nc(OCC3(CN(C)C)CC3)nc3c2CCN(c2cccc4cccc(Cl)c24)C3)CC1CC#N (stereo not drawn) [Compound 79, 2-(4-(7-(8-chloronaphthalen-1-yl)-2-((1-((dimethylamino)methyl)cyclopropyl)methoxy)-5,6,7,8-tetrahydropyrido[3,4-d]pyrimidin-4-yl)-1-(2-fluoroacryloyl)piperazin-2-yl)acetonitrile]	439	239	6.03
Cc1cccc2cccc(N3CCc4c(nc(OCC5(CN(C)C)CC5)nc4N4CCN(C(=O)/C=C/CF)C(CC#N)C4)C3)c12 (stereo not drawn) [Compound 77, (E)-2-(4-(2-((1-((dimethylamino)methyl)cyclopropyl)methoxy)-7-(8-methylnaphthalen-1-yl)-5,6,7,8-tetrahydropyrido[3,4-d]pyrimidin-4-yl)-1-(4-fluorobut-2-enoyl)piperazin-2-yl)acetonitrile]	59.3	29	1.24
C=CC(=O)N1CCN(c2nc(OCC3(CN(C)C)CC3)nc3c2CCN(c2c(C)ccc4[nH]ncc24)C3)CC1CC#N (stereo not drawn) [Compound 3, 2-(1-acryloyl-4-(2-((1-((dimethylamino)methyl)cyclopropyl)methoxy)-7-(5-methyl-1H-indazol-4-yl)-5,6,7,8-tetrahydropyrido[3,4-d]pyrimidin-4-yl)piperazin-2-yl)acetonitrile]	453	408	12.1
C=CC(=O)N1CCN(c2nc(OCC3(N(C)C)CC3)nc3c2CCN(c2cccc4cccc(C)c24)C3)CC1CC#N (stereo not drawn) [Compound 20, 2-(1-acryloyl-4-(2-((1-(dimethylamino)cyclopropyl)methoxy)-7-(8-methylnaphthalen-1-yl)-5,6,7,8-tetrahydropyrido[3,4-d]pyrimidin-4-yl)piperazin-2-yl)acetonitrile]	127	102	19.4
Cc1cccc2cccc(N3CCc4c(nc(OCC5(CN(C)C)CC5)nc4N4CCN(C(=O)/C=C/CO)C(CC#N)C4)C3)c12 (stereo not drawn) [Compound 69, (E)-2-(4-(2-((1-((dimethylamino)methyl)cyclopropyl)methoxy)-7-(8-methylnaphthalen-1-yl)-5,6,7,8-tetrahydropyrido[3,4-d]pyrimidin-4-yl)-1-(4-hydroxybut-2-enoyl)piperazin-2-yl)acetonitrile]	157	77.6	2.73
COC/C=C/C(=O)N1CCN(c2nc(OCC3(CN(C)C)CC3)nc3c2CCN(c2cccc4cccc(C)c24)C3)CC1CC#N (stereo not drawn) [Compound 70, (E)-2-(4-(2-((1-((dimethylamino)methyl)cyclopropyl)methoxy)-7-(8-methylnaphthalen-1-yl)-5,6,7,8-tetrahydropyrido[3,4-d]pyrimidin-4-yl)-1-(4-methoxybut-2-enoyl)piperazin-2-yl)acetonitrile]	172	195	3.41
C=CC(=O)N1CCN(c2nc(OCC3CCCC(N(C)C)C3)nc3c2CCN(c2cccc4ccccc24)C3)CC1CC#N (stereo not drawn) [Compound 15, 2-(1-acryloyl-4-(2-((3-(dimethylamino)cyclohexyl)methoxy)-7-(naphthalen-1-yl)-5,6,7,8-tetrahydropyrido[3,4-d]pyrimidin-4-yl)piperazin-2-yl)acetonitrile]	876	497	333
C=CC(=O)N1CCN(c2nc(OCC3(CN4CCN(C)CC4)CC3)nc3c2CCN(c2cccc4cccc(C)c24)C3)CC1CC#N (stereo not drawn) [Compound 58, 2-(1-acryloyl-4-(7-(8-methylnaphthalen-1-yl)-2-((1-((4-methylpiperazin-1-yl)methyl)cyclopropyl)methoxy)-5,6,7,8-tetrahydropyrido[3,4-d]pyrimidin-4-yl)piperazin-2-yl)acetonitrile]	44.3	36.9	1.47
C/C=C/C(=O)N1CCN(c2nc(OCC3(CN4CCCC4)CC3)nc3c2CCN(c2cccc4cccc(C)c24)C3)CC1CC#N (stereo not drawn) [Compound 74, (E)-2-(1-(but-2-enoyl)-4-(7-(8-methylnaphthalen-1-yl)-2-((1-(pyrrolidin-1-ylmethyl)cyclopropyl)methoxy)-5,6,7,8-tetrahydropyrido[3,4-d]pyrimidin-4-yl)piperazin-2-yl)acetonitrile]	> 500	1520	66.8
C=C(F)C(=O)N1CCN(c2nc(OCC3(CN4CCC4)CC3)nc3c2CCN(c2cccc4cccc(C)c24)C3)CC1CC#N (stereo not drawn) [Compound 73, 2-(4-(2-((1-(azetidin-1-ylmethyl)cyclopropyl)methoxy)-7-(8-methylnaphthalen-1-yl)-5,6,7,8-tetrahydropyrido[3,4-d]pyrimidin-4-yl)-1-(2-fluoroacryloyl)piperazin-2-yl)acetonitrile]	963	883	17
C=CC(=O)N1CCN(c2nc(OCC3CCCC(N(C)C)C3)nc3c2CCN(c2ccccc2C(F)(F)F)C3)CC1CC#N (stereo not drawn) [Compound 6, 2-(1-acryloyl-4-(2-((3-(dimethylamino)cyclohexyl)methoxy)-7-(2-(trifluoromethyl)phenyl)-5,6,7,8-tetrahydropyrido[3,4-d]pyrimidin-4-yl)piperazin-2-yl)acetonitrile]	592	580	178
